45 compounds from PubChem BioAssay (NCI) can be followed below.

“And” between values parts separate entries of the source, which are not always exact repeats. Identical values can stand only once.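 Interpolation was linear, between the two tested concentrations surrounding the appropriate level; five concentrations were tested over 48 hours in 96-well plates. The concentration for 50% growth inhibition is given as GI50. TGI denotes the concentration required for complete inhibition of growth.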 Some results are limits rather than exact numbers.

The experiment deals with MDA-MB-468 breast. Put plainly: NCI anticancer screen, dose series, 48 h.
Regarding `CC1=C(C)C(=O)C(Nc2cccc(C(F)(F)F)c2)=C(Cl)C1=O`, the GI50 is 1240 nM and the TGI turned out to be 2.94 µM.

With `CCN(CC)c1ccc(/C=C/c2cc(C)c3ccccc3n2)cc1`, the GI50 was 3060 nM and the TGI turned out to be 9.02 µM.

On to `CN(C)CCNC(=O)c1cccn2c(=O)c3cc4ccccc4cc3nc12`, for which the GI50 is 299 nM and the TGI turned out to be 1.12 µM.

In the case of `COc1ccc(-c2ccc(-c3ccc(C(=N)N)nc3)s2)cc1`, the GI50 was 1630 nM and the TGI was 3.11 µM.

On to `Cc1cc(N2CCCCC2)nc(N(CCNc2ccnc3cc(Cl)ccc23)Cc2ccco2)n1`, for which the GI50 is 1740 nM and the TGI is 3.87 µM.

As for `CC1=C(C(=O)OCc2ccccc2)C(c2ccc3c(c2)OCO3)n2c(nc3ccccc32)N1` (stereo not given), the GI50 was 247 nM and the TGI was determined as 39.5 µM.

On to `N#CSc1ncnc2nc[nH]c12`, for which the GI50 was 522 nM and the TGI is > 100 µM.

For the compound `O=c1cc(CNc2cc(F)cc(F)c2)c2ccc(I)cc2[nH]1`, the GI50 was 409 nM and the TGI is > 100 µM.

In the case of `CC[C@H](Nc1nc(N)nc(C)c1C#N)c1nc2cccc(CN(C)c3ncc(C(=O)NO)cn3)c2c(=O)n1-c1ccccc1`, the GI50 is 367 nM and the TGI is 10.5 µM.

With `N#Cc1ncc(/N=C/c2ccc(N(CCCl)CCCl)cc2)s1`, the GI50 is 436 nM and the TGI worked out at 3.65 µM.

For the compound `COc1ccc(Cn2nc(-c3cc(OC)c(OC)c(OC)c3)c3c2CCc2cnoc2-3)cc1OC`, the GI50 was 1940 nM and the TGI turned out to be 8.84 µM.

For `C[C@]12CC[C@H]3[C@@H](CCC4=CC(=O)CC[C@@H]43)[C@@H]1CC[C@@H]2OC(=O)N(CCCl)N=O`, the GI50 is 512 nM and the TGI came to 5.7 µM.

In the case of `O=C(CCN1CCCC1)Nc1ccc2c(NCc3ccc(F)cc3)c3ccccc3nc2c1`, the GI50 was 318 nM and the TGI came to 1.4 µM.

With `CC(=O)/C(N=Nc1ccc2oc(=O)ccc2c1)=C(\C)O`, the GI50 was 2740 nM and the TGI was determined as 12.7 µM.

As to `CC1=C2C(=C[C@@](C)(COC(=O)c3ccc(S(=O)(=O)F)cc3)[C@@H]2OC(=O)c2ccc(S(=O)(=O)F)cc2)C(=O)[C@](C)(O)C12CC2`, the GI50 was 187 nM and the TGI was found to be 0.465 µM.

In the case of `CC12CCC=CC1CCC1C2CCC2(C)C(c3ccc(=O)oc3)CCC12O` (stereo not given), the GI50 was 313 nM and the TGI was 1.22 µM.

As to `COc1cc2nc(Cl)nc(Nc3cccc(C(=O)/C=C/c4ccccc4)c3)c2cc1OC`, the GI50 was 3390 nM and the TGI was > 100 µM.

As for `CCN1C(=O)N(CC)C2C1NN=c1s/c(=C3\C(=O)N(C(C)C)c4ccccc43)c(=O)n12` (stereo not given), the GI50 is 321 nM and the TGI was 5.58 µM.

As to `c1ccc2nc(Cn3c[n+](Cc4ccc5ccccc5n4)c4ccccc43)ccc2c1`, the GI50 was 645 nM and the TGI was 5.44 µM.

Regarding `CNC(=O)c1cc(N2CCc3cc(NC(=O)Nc4ccc(N5CCN(C)CC5)c(C(F)(F)F)c4)ccc32)ccn1`, the GI50 is 3680 nM and the TGI is 7.95 µM.

In the case of `CCCC(=O)NC(c1cccnc1)c1ccc2c(C)ccnc2c1O` (stereo not given), the GI50 is 1680 nM and the TGI was 6.91 µM.

With `COc1cc2cc(Oc3ccc(NC(=O)Nc4ccc(Cl)c(C(F)(F)F)c4)cc3)c(C)nc2cc1OCCN1CCCCC1`, the GI50 is 1340 nM and the TGI amounted to 2.85 µM.

For `CCCN(Cc1ccc(F)cc1)c1ccc(CO)c(Cl)c1`, the GI50 is 21.2 nM and the TGI was found to be 0.0625 µM.

In the case of `NC(=O)[C@H]1CCN(c2ncnc(N)c2F)C[C@@H]1N1CCC[C@@H](Nc2cc(Cl)cc(C(F)(F)F)c2)C1=O`, the GI50 is 11200 nM and the TGI stood at 34.4 µM.

With `COc1ccc([C@@H]2[C@@H](O)C(=O)N2c2cc(OC)c(OC)c(OC)c2)cc1F`, the GI50 was 26.9 nM and the TGI worked out at 0.398 µM.

`O=S(=O)(c1ccc(NC(=S)NCc2cccnc2)cc1)N1CCCCC1`: the GI50 was 9800 nM and the TGI worked out at 95.8 µM.

With `CCN(CC)CCOc1ccc(C(=C(C)c2ccc(Cl)cc2)c2ccc(OCCN(CC)CC)cc2)cc1`, the GI50 is 556 nM and the TGI came out at 1.1 µM.

Take `Fc1ccc(-c2nc3n(c2-c2ccncc2)CCS3)cc1`: the GI50 was 4630 nM and the TGI was > 25 µM.

Regarding `CCN=C1C=CC(=C(c2ccc(N(C)C)cc2)c2ccc(N(C)C)cc2)c2ccccc21`, the GI50 is 47 nM and the TGI is 0.346 µM.

As to `CCCN1C(=O)/C(=c2\sc3n(c2=O)C2C(NN=3)N(CC)C(=O)N2CC)c2ccccc21` (stereo not given), the GI50 is 464 nM and the TGI worked out at 10.4 µM.

Consider `COc1cc2c(cc1OC)-c1ccc3cc4c(cc3c1N(CCN1CCCC1)C2)OCO4`, for which the GI50 is 653 nM and the TGI is 2.2 µM.

Turning to `C=C(C)[C@@H]1CC[C@]2(C(=O)NCCCN)CC[C@]3(C)[C@H](CC[C@@H]4[C@@]5(C)CC[C@H](O)C(C)(C)[C@@H]5CC[C@]43C)[C@@H]12`, the GI50 is 12600 nM and the TGI turned out to be 48.5 µM.

Regarding `CN(C)c1ccc2nc3ccc(=[N+](C)C)cc-3oc2c1`, the GI50 is 620 nM and the TGI stood at 3.58 µM.

Turning to `O=C(CCl)c1ccc([N+](=O)[O-])o1`, the GI50 was 1060 nM and the TGI stood at 2.77 µM.

On to `O=C1C(Cl)=C(N/N=c2/[nH][nH]/c(=N/NC3=C(Cl)C(=O)c4ccccc4C3=O)c3ccccc23)C(=O)c2ccccc21`, for which the GI50 is 14700 nM and the TGI came to 32.9 µM.

As to `C[C@]12CC[C@H]3[C@@H](CC=C4C[C@@H](O)CC[C@@]43C)[C@@H]1CC[C@@H]2[C@](C)(O)CCc1cccnc1`, the GI50 was 1910 nM and the TGI was > 100 µM.

Take `COc1cc(Cn2cc3c(c2)-c2oncc2CC3)cc(OC)c1OC`: the GI50 was 14.7 nM and the TGI is 0.0541 µM.

Regarding `OCC1OC(n2ccc3c2ncn2ncnc32)C(O)C1O` (stereo not given), the GI50 was 279 nM and the TGI stood at 3.19 µM.

Take `CCn1c(-c2nonc2N)nc2cncc(C(=O)N3CCNCC3)c21`: the GI50 was > 25000 nM and the TGI was > 25 µM.

Consider `CCOC(=O)Cc1c[nH]c(=S)[nH]c1=O`, for which the GI50 was > 100000 nM and the TGI is > 100 µM.

Regarding `CCc1ccc(NC(=O)Nc2c[nH]c3ccccc23)cc1`, the GI50 is 18800 nM and the TGI was > 56.5 µM.

`O=C(Nc1cccc(Cl)c1)Nc1ncc(CCNc2ncnc3ccsc23)s1`: the GI50 was 196 nM and 952 nM; the TGI is 8.39 µM and > 10 µM.

For `N=C(N)c1nn(C2OC(CO)C(O)C2O)c2nc[nH]c(=O)c12` (stereo not given), the GI50 is 372 nM and the TGI stood at 1.69 µM.

As for `CC(C)(O)c1ccc(N2CCN(c3nnc(Cc4ccccc4)c4ccccc34)CC2)nc1`, the GI50 is 2780 nM and the TGI turned out to be 12.8 µM.

With `COc1cccc(C2=C(c3cn(C)c4ccccc34)C(=O)NC2=O)c1`, the GI50 was 5130 nM and the TGI was > 25 µM.
